# Assay results published in patent US6632816B1, “Aromatic derivatives as HIV aspartyl protease inhibitors” (Pharmacor Inc., priority 2002, dated 2003).
# Where two headings read alike, the source gives them in different places.
# Key:
# [1] = system: HIV-1 laboratory viral strain NL4.3 (wild type virus); test: Anti-viral assay in vitro (MTT, infected MT-4 cells); assay type: cell-based; details: MT-4 cells infected with NL4.3, six days, MTT assay, read-out: EC50
# Description: Anti-viral and Cytotoxicity Assays In Vitro
# To evaluate the EC50 of our compounds, various drug concentrations are incubated with the infected cell for six days and then the metabolic activity of the cells is monitored by the MTT assay. (See A. J. Japour et al, Antimicrobial Agents and Chemotherapy, 37, 1095-1101, 1993 and R. Pauwels et al. Journal of Virological Methods, 20, 309-321, 1988)
# We use the laboratory viral strain NL4.3 as wild type virus and the cell line used is MT-4 which is a T-cell line highly sensitive to HIV-1. We also use some WT clinical strains. To address the resistance issue we assay the inhibitors with NL4.3 mutants which are designed to be resistant to specific commercially,available inhibitors
# HIV protease [2] = molecular target: T1, HIV protease (Human immunodeficiency virus type 1 group M subtype B, UniProt P04585); details: FRET assay, Henderson equation
# Description: (§1) Enzymatic Assay for Determining the Inhibition Constant (Ki) of Synthetic Compounds Targeting the HIV Protease
# (§2) This is a fluorometric assay based on the cleavage by protease of a substrate carrying a donor group (EDANS) and an acceptor group (DABCYL) on each side of the cleavage site, interacting together through fluorescence resonance energy transfer (FRET) as described by Matayoshi et al. (Science 247:954-954, 1990).
# (§3) After calculation of Vo and Vi, the inhibition constant (Ki) of the compound is determined using the equation of Henderson: [formula]
# where Vo=the enzyme's initial velocity
# (§4) Vi=the enzyme velocity in the presence of the inhibitory compound,
# (§5) [I]=inhibitor concentration, [S]=substrate concentration,
# (§6) Km=Michaelis-Menten constant and Kiapp=apparent Ki
# (§7) Graphs are traced and the Ki determined using GraphPad Prism software v.
# HIV protease [3] = molecular target: T1, HIV protease; test: biochemical
# Description: as §1, §2, §3
# where Vo=the enzyme's initial velocity
# as §4, §5, §6, §7
# [4] = Human immunodeficiency virus 1, MT4, 144 h
compound,measurement,setting,value
"COC(=O)N[C@@H](Cc1ccccc1-c1ccccc1)C(=O)NCCCCC(CO)N(CC(C)C)S(=O)(=O)c1ccc(N)cc1 (stereo partly drawn) [Example 30, (1S,5R,S)-(1-{5-[(4-Amino-benzenesulfonyl)-isobutyl-amino]-6-hydroxy-hexylcarbamoyl}-2-biphenyl-2-yl-ethyl)-carbamic Acid Methyl Ester]",EC50,[1],344 nM
same,Ki,HIV protease [2],1.4 nM
"CC(C)CN([C@H](CO)CCCCNC(=O)[C@@H](NC(=O)C1CC1)C(c1ccccc1)c1ccccc1)S(=O)(=O)c1ccc(N)cc1 [Example 75, (1S,5S)-Cyclopropanecarboxylic Acid (1-{5-[(4-Amino-benzenesulfonyl)-isobutyl-amino]-6-hydroxy-hexylcarbamoyl}-2,2-diphenyl-ethyl)-amide]",EC50,[1]; [4],25 nM
same,Ki,HIV protease [3],< 3.8 nM
"CC(C)CN([C@H](CO)CCCCNC(=O)[C@@H](NC(=O)C1CCCCC1)C(c1ccccc1)c1ccccc1)S(=O)(=O)c1ccc(N)cc1 [Example 76, (1S,5S)-Cyclohexanecarboxylic Acid (1-{5-[(4-Amino-benzenesulfonyl)-isobutyl-amino]-6-hydroxy-hexylcarbamoyl}-2,2-diphenyl-ethyl)-amide]",EC50,[1]; [4],93 nM
same,Ki,HIV protease [3],< 3.8 nM
"CC(C)CN([C@H](CO)CCCCNC(=O)[C@H](Cc1ccc2ccccc2c1)NC(=O)N1CCOCC1)S(=O)(=O)c1ccc(N)cc1 [Example 33, (1S,5S)-Morpholine-4-carboxylic Acid (1-{5-[(4-Amino-benzenesulfonyl)-isobutyl-amino]-6-hydroxy-hexylcarbamoyl}-2-naphthalen-2-yl-ethyl)-amide]",EC50,[1]; [4],92 nM
same,Ki,HIV protease [3],0.8 nM
"COC(=O)N[C@H](C(=O)NCCCC[C@@H](CO)N(CC(C)C)S(=O)(=O)c1ccc(F)cc1)C(c1ccccc1)c1ccccc1 [Example 78, (1S,5S)-(1-{5-[(4-Fluoro-benzenesulfonyl)-isobutyl-amino]-6-hydroxy-hexylcarbamoyl}-2,2-diphenyl-ethyl)-carbamic Acid Methyl Ester]",EC50,[1]; [4],94 nM
same,Ki,HIV protease [3],< 3.8 nM
"CC(C)CN([C@H](CO)CCCNC(=O)[C@@H](NC(=O)N1CCOCC1)C(c1ccccc1)c1ccccc1)S(=O)(=O)c1ccc(N)cc1 [Example 9, (1S,4S)-Morpholine-4-carboxylic Acid (1-{4-[(4-Amino-benzenesulfonyl)-isobutyl-amino]-5-hydroxy-pentylcarbamoyl}-2,2-diphenyl-ethyl)-amide]",EC50,[1]; [4],1300 nM
same,Ki,HIV protease [3],4.2 nM
"CC(C)CN([C@H](CO)CCCCNC(=O)[C@H](Cc1cccc2ccccc12)NC(=O)N1CCOCC1)S(=O)(=O)c1ccc(N)c(Cl)c1 [Example 44, (1S,5S)-Morpholine-4-carboxylic Acid (1-{5-[(4-Amino-3-chloro-benzenesulfonyl)-isobutyl-amino]-6-hydroxy-hexylcarbamoyl}-2-naphthalen-1-yl-ethyl)-amide]",EC50,[1]; [4],134 nM
same,Ki,HIV protease [3],0.904 nM
"CC(C)CN([C@H](CO)CCCCNC(=O)[C@H](Cc1cccc2ccccc12)NC(=O)N1CCOCC1)S(=O)(=O)c1ccc(N)cc1 [Example 32, (1S,5S)-Morpholine-4-carboxylic Acid (1-{5-[(4-Amino-benzenesulfonyl)-isobutyl-amino]-6-hydroxy-hexylcarbamoyl}-2-naphthalen-1-yl-ethyl)-amide]",EC50,[1]; [4],30 nM
same,Ki,HIV protease [3],0.782 nM
COC(=O)N[C@H](C(=O)NCCCC[C@@H](CO)N(CC(C)C)S(=O)(=O)c1ccc(C#N)cc1)C(c1ccccc1)c1ccccc1 [Example 79],EC50,[1]; [4],65 nM
same,Ki,HIV protease [3],< 3.8 nM
"CC(C)CN([C@H](CO)CCCCNC(=O)[C@H](Cc1ccc2ccccc2c1)NC(=O)N(C)C)S(=O)(=O)c1ccc(N)cc1 [Example 41, (2S,5S)-N-{5-[(4-Amino-benzenesulfonyl)-isobutyl-amino]-6-hydroxy-hexyl}-2-(3,3-dimethyl-ureido)-3-naphthalen-2-yl-propionamide]",EC50,[1]; [4],79 nM
same,Ki,HIV protease [3],1.1 nM
"COC(=O)N[C@@H](Cc1cccc2ccccc12)C(=O)NCCC[C@@H](CO)N(CC(C)C)S(=O)(=O)c1ccc(N)cc1 [Example 2, (1S,4S)-(1-{4-[(4-Amino-benzenesulfonyl)-isobutyl-amino]-5-hydroxy-pentylcarbamoyl}-2-naphthalen-1-yl-ethyl)-carbamic Acid Methyl Ester]",EC50,[1]; [4],674 nM
same,Ki,HIV protease [3],2.8 nM
"COC(=O)N[C@@H](Cc1ccccc1-c1ccccc1)C(=O)NCCCC[C@@H](CO)N(CC(C)C)S(=O)(=O)c1ccc(N)cc1 [Example 39, (1S,5S)-(1-{5-[(4-Amino-benzenesulfonyl)-isobutyl-amino]-6-hydroxy-hexylcarbamoyl}-2-biphenyl-2-yl-ethyl)-carbamic Acid Methyl Ester]",EC50,[1]; [4],200 nM
same,Ki,HIV protease [3],0.521 nM
